This is an account of results in patent publication US4462992A, “Nitroimidazole radiosensitizers for hypoxic tumor cells and compositions thereof” (priority 1982, dated 1984).

Read-outs that look alike come from different tables or passages of the source.

Data set [1] in a line: Pharmacokinetics, localization in tissue in mice bearing B16 melanoma. The class given is in vivo, mouse (C57/BL). Particulars: for concentration at 0.5 h / concentration at 1 h / Kp at 0.5 h / Kp at 1 h: mouse, ip, 1000 mg/kg; for concentration at 0.5 h / concentration at 1 h: 1 g/kg intraperitoneal. Here is the method: The drug solution was made in normal saline at a concentration of 50 mg/ml. The drug solution was injected intraperitoneally at a dose level of 1 g/kg to C57/BL mice bearing 15 day old B16 melanoma tumor. At 30 and 60 minute interval after the drug administration, mice were anesthetized, blood sample was taken directly by heart puncture and tumor and brain tissue were removed. Plasma was separated after centrifugation of the whole blood and extracted with methanol. Brain and tumor tissue were homogenized and also extracted with methanol. The methanol extracts were analyzed by reverse phase high-performance liquid chromatography employing 25% methanol as mobile phase. The peak was detected at 320 nm with a retention time of 2.3 min. The flow rate was 2 ml/min.

The subject of data set [2] is Chinese hamster cells line V-79. Kind of data set: Radiosensitization (enhancement ratio, cobalt-60 irradiation of hypoxic cells). In kind it is cell-based. Here is the method: (§1) Asynchronous monolayers of cultures of Chinese hamster cells line V-79 were employed in all experiments. The monolayers were derived from exponentially growing cultures. Methods of culturing and handling have been reported earlier by Cooke et al, Rad. Res. 65, 152 (1976). The plated cultures were rendered hypoxic in sealed dural containers capable of holding seven petri dishes, by purging with nitrogen (oxygen-free grade) for one hour. Irradiation was carried out by using a cobalt-60 source at a dose rate of approximately 240 rad/min according to the procedure described by Agrawal et al Rad. Res. 78:532 (1979). A dose of 1400 rad was given to hypoxic cells in glass petri dishes in the presence of a given drug concentration (2000 cells/dish). Cell survival was estimated from unirradiated toxic hypoxic cells exposed to the same drug concentration. Complete survival curves were obtained for each compound at the radiation doses of 400 to 3000 rad. The Do value was calculated for each compound and the ratio of the Do value for the hypoxic control cells to the Do value of the hypoxic drug treated cells provided the sensitized enhancement ratio of the corresponding agent.
(§2) Cultures were incubated for 6 days at 37° C. in an atmosphere of 5% CO2. The resulting colonies were fixed in absolute ethanol and stained with methylene blue and counted.

The nature of data set [3]: In vitro cytotoxicity in oxic cells (% survival). In kind it is cell-based, Chinese hamster. Particulars: hamster, v-79 cells, oxic, 2 hours, read-out: In vitro cytoxicity in oxic cells (% survival at 2 hours); for viability at 2 h, 100 µM: 0.1 mM; for viability at 2 h, 500 µM: 0.5 mM; for viability at 2 h, 1000 µM: 1.0 mM; for viability at 2 h, 5000 µM: 5.0 mM. As to the method: as §1, §2
(§3) To determine toxicity in vitro, glass petri dishes containing approximately 200 Chinese hamster cells/dish were exposed to a range of concentrations of each drug for 2 hours and/or 4 hours at 37° C. Drug concentrations between 10 μM and 0.5 mM were employed initially.

Data set [4] can be described thus: In vitro cytotoxicity in hypoxic cells (% survival). Particulars: hamster, v-79 cells; for viability at 2 h, 50 µM / viability at 4 h, 50 µM: 0.05 mM; for viability at 2 h, 250 µM / viability at 4 h, 250 µM: 0.25 mM; for viability at 4 h, 10 µM / viability at 4 h, 50 µM / viability at 4 h, 100 µM / viability at 4 h, 250 µM: read-out: In vitro cytoxicity in hypoxic cells (% survival at 4 hours). The class given is cell-based, Chinese hamster. Here is the method: as §1, §2, §3

For a further data set, the system named is hypoxic tumor cells. Particulars: cited from earlier work.
Data set [5] concerns Chinese hamster cells line V-79 (oxic). Kind of data set: In vitro cytotoxicity in oxic cells (% survival). In kind it is cell-based. Particulars: 2 hours. As to the method:
as §1, §2, §3

[6] abbreviates: 2 hours, read-out: In vitro cytoxicity in hypoxic cells (% survival at 2 hours).

For the molecule `O=[N+]([O-])c1nccn1[C@@H]1C=C[C@H](O)[C@@H](CO)O1` [1-(2',3'-didehydro-2',3'-dideoxy-α-D-erythro-hexopyranosyl)-2-nitroimidazole], the “tumor concentration relative to brain (Tumor/Brain ratio)” value in data set [1] (30 and 60 min) was “approximately 3 fold”. Also, in data set [1] (30 to 60 min), the “Ratio of Brain/Plasma, change with time” value is “increased with time”. The “Ratio of Tumor/Plasma, change with time” value in data set [1] (30 to 60 min) is on record as “increased with time”. The “Ratio of Tumor/Brain” value came to 2.87 in data set [1] (30 min) and 2.88 in data set [1] (60 min). Also, the concentration at 0.5 h came out at 293000 ng/g in data set [1] (b16 melanoma tumor, tumor, 30 min, read-out: (B16 melanoma)); 102000 ng/g in data set [1] (brain, 30 min, read-out: Brain); 1050 µg/mL in data set [1] (plasma, 30 min, read-out: Plasma). In addition, the concentration at 1 h in data set [1] (b16 melanoma tumor, tumor, 60 min, read-out: (B16 melanoma)) was 346000 ng/g; in data set [1] (brain, 60 min, read-out: Brain), 120000 ng/g; in data set [1] (plasma, 60 min, read-out: Plasma), 648 µg/mL. Further, the Kp at 0.5 h in data set [1] (brain/plasma, 30 min, read-out: Ratio of Brain/Plasma) turned out to be 0.097; in data set [1] (tumor/plasma, 30 min, read-out: Ratio of Tumor/plasma) it was 0.278. In addition, the Kp at 1 h worked out at 0.18 in data set [1] (brain/plasma, 60 min, read-out: Ratio of Brain/Plasma) and 0.534 in data set [1] (tumor/plasma, 60 min, read-out: Ratio of Tumor/plasma).

Take `O=[N+]([O-])c1nccn1C1CCCCO1` (centres unmarked) [J, 1-(Tetrahydro-2-pyranyl)-2-nitroimidazole]: the “Radiosensitization (enhancement ratio in Chinese hamster cells)” value in data set [2] (1.0 mM) was 1.7. In data set [3], the viability at 2 h, 100 µM is 106%; the viability at 2 h, 500 µM stood at 101%; the viability at 2 h, 1000 µM was found to be 105%; the viability at 2 h, 5000 µM worked out at 94.9%.

As for `O=C(OC[C@H]1O[C@@H](n2ccnc2[N+](=O)[O-])[C@@H](OC(=O)c2ccccc2)[C@@H]1OC(=O)c1ccccc1)c1ccccc1` [F, 1(2',3',5tri-O--benzoylD-arabinofuranosyl)-2-nitroimidazole], in data set [4] (2 hours, 0.01 mM, read-out: In vitro cytoxicity in hypoxic cells (% survival at 2 hours)), the viability at 2 h, 10 µM came to 102%. Also, in data set [4] (setting [6]), the viability at 2 h, 50 µM was determined as 102% and the viability at 2 h, 250 µM worked out at 105%. Also, in data set [4] (2 hours, 0.1 mM, read-out: In vitro cytoxicity in hypoxic cells (% survival at 2 hours)), the viability at 2 h, 100 µM was 97%. Moreover, the viability at 4 h, 10 µM in data set [4] (0.01 mM) stood at 103%. Moreover, in data set [4], the viability at 4 h, 50 µM amounted to 104% and the viability at 4 h, 250 µM was determined as 73%. Moreover, in data set [4] (0.1 mM), the viability at 4 h, 100 µM is 89%. For the same molecule, in data set [2] (0.1 mM), the “Radiosensitization (enhancement ratio in Chinese hamster cells)” value is reported as 1.1.

On to `O=C(OC[C@H]1O[C@H](n2ccnc2[N+](=O)[O-])[C@@H](OC(=O)c2ccccc2)[C@@H]1OC(=O)c1ccccc1)c1ccccc1` [E, 1(2',3',5tri-O--benzoylD-arabinofuranosyl)-2-nitroimidazole], for which, in data set [4] (setting [6]), the viability at 2 h, 50 µM stood at 84% and the viability at 2 h, 250 µM came out at 12%. The viability at 4 h, 10 µM in data set [4] (0.01 mM) was determined as 80%. Further, in data set [4], the viability at 4 h, 50 µM was 76% and the viability at 4 h, 250 µM is 2.6%. In data set [4] (0.1 mM), the viability at 4 h, 100 µM amounted to 46%. For the same molecule, the “Radiosensitization (enhancement ratio in Chinese hamster cells)” value in data set [2] (0.05 (mM not given)) turned out to be 1.0.

With `O=[N+]([O-])c1nccn1C1CCCC1O` (centres unmarked) [K, 1-(2-Hydroxycyclopentyl)-2-nitroimidazole], the “Radiosensitization (enhancement ratio in Chinese hamster cells)” value in data set [2] (1.0 mM) turned out to be 2.0. In addition, in data set [3], the viability at 2 h, 100 µM was determined as 112%; the viability at 2 h, 500 µM was determined as 110%; the viability at 2 h, 1000 µM came to 107%; the viability at 2 h, 5000 µM is 94.7%.

Regarding `O=[N+]([O-])c1nccn1C1CCCCC1O` (centres unmarked) [L, 1-(2-Hydroxycyclohexyl)-2-nitroimidazole], the “Radiosensitization (enhancement ratio in Chinese hamster cells)” value in data set [2] (1.0 mM) is reported as 2.0. For the same molecule, in data set [3], the viability at 2 h, 100 µM worked out at 98.2%; the viability at 2 h, 500 µM was 90.3%; the viability at 2 h, 1000 µM came to 86%.

With `O=[N+]([O-])c1nccn1C1O[C@H](CO)[C@@H](O)[C@@H]1O` (stereo partly drawn) [D, 1(D-Arabinofuranosyl)-2-nitroimidazole], in data set [2] (1.0 mM), the “Radiosensitization (enhancement ratio in Chinese hamster cells)” value was determined as 1.7. In data set [3], the viability at 2 h, 100 µM stood at 105%; the viability at 2 h, 500 µM was found to be 104%; the viability at 2 h, 1000 µM worked out at 99%; the viability at 2 h, 5000 µM stood at 116%.

Regarding `O=[N+]([O-])c1nccn1C1C[C@H](O)[C@@H](CO)O1` (stereo partly drawn) [G, 1(2-deoxy-D-erythro-pentofuranosyl)-2-nitroimidazole], in data set [2] (1.0 mM), the “Radiosensitization (enhancement ratio in Chinese hamster cells)” value is 1.9. Besides, in data set [3], the viability at 2 h, 100 µM turned out to be 95.3%; the viability at 2 h, 500 µM is 88.9%; the viability at 2 h, 1000 µM turned out to be 93%; the viability at 2 h, 5000 µM was 82.4%.

In the case of `O=[N+]([O-])c1nccn1C1CCCO1` (centres unmarked) [I, 1-(Tetrahydro-2-furanyl)-2-nitroimidazole], the “Radiosensitization (enhancement ratio in Chinese hamster cells)” value in data set [2] (1.0 mM) is 1.6. Besides, in data set [3], the viability at 2 h, 100 µM was found to be 98.8%; the viability at 2 h, 500 µM was determined as 101%; the viability at 2 h, 1000 µM turned out to be 87.1%; the viability at 2 h, 5000 µM worked out at 79.5%.

As to `O=[N+]([O-])c1nccn1COCCO` [M, 1-[(2-hydroxyethoxy)methyl]-2-nitroimidazole], in data set [2] (1.0 mM), the “Radiosensitization (enhancement ratio in Chinese hamster cells)” value came out at 2.1. In addition, in data set [3], the viability at 2 h, 100 µM turned out to be 99.5%; the viability at 2 h, 500 µM was 106%; the viability at 2 h, 1000 µM is 104%.

`O=c1[nH]c(=O)n([C@H]2C[C@H](O)[C@@H](CO)O2)cc1F` [5-flourodeoxyuridine]: in the data set on hypoxic tumor cells, the “selectivity for tumor cells” value was “poor selectivity”.

In the case of `O=c1[nH]c(=O)n([C@H]2C[C@H](O)[C@@H](CO)O2)cc1Br` [5-bromodeoxyuridine], in the data set on hypoxic tumor cells, the “selectivity for tumor cells” value was “poor selectivity”.

In the case of `O=[N+]([O-])c1nccn1C1C[C@H](O)[C@@H](CO)O1` (stereo partly drawn) [H, 1(2-deoxy-D-erythro-pentofuranosyl)-2-nitroimidazole], the “Radiosensitization (enhancement ratio in Chinese hamster cells)” value in data set [2] (1.0 mM) is 1.9. For the same molecule, the “In vitro cytoxicity in oxic cells (% survival at 2 hours)” value in data set [5] (0.1 mM) came out at 95.3%; in data set [5] (0.5 mM, 120 min, 500 µM) it was 94.2%; in data set [5] (1.0 mM, 120 min, 1000 µM) it was 98.2%; in data set [5] (5.0 mM, 120 min, 5000 µM), 81.3%.
